Reference: patent US20240360174A1, “CELL-PENETRATING PEPTIDE SEQUENCES” (Ohio State Innovation Foundation, priority 2016, published 2024)
Bridge positions count the residues as written; N and C are the ends. Square brackets hold non-standard residues; d marks the D form. Ends that are not written are not given here. 2Nal = N[C@@H](Cc1ccc2ccccc2c1)C(=O)O; Pip = O=C(O)[C@@H]1CCCCN1; Dap = NC[C@H](N)C(=O)O

Test system: HeLa cells
Assay: Cellular uptake / cytosolic delivery efficiency of NF-labelled peptides by flow cytometry
Format: cell-based
Settings: 2 h, 5 mM naphthofluorescein-labelled peptide, relative to CPP 1 (100%), mean ± S.D. of three independent experiments
Source text: Absolute cytosolic delivery efficiency is the ratio of cytosolic concentration of a CPP (or a CPP-cargo conjugate) over the concentration of the CPP (or the CPP-cargo conjugate) in the growth medium. Relative cytosolic delivery efficiency refers to the concentration of a CPP in the cytosol compared to the concentration of a control CPP in the cytosol. Quantification can be achieved by fluorescently labeling the CPP (e.g., with a FTIC dye) and measuring the fluorescence intensity using techniques well-known in the art.
In particular embodiments, relative cytosolic delivery efficiency is determined by comparing (i) the amount of a CPP of the invention internalized by a cell type (e.g., HeLa cells) to (ii) the amount of the control CPP internalized by the same cell type. To measure relative cytosolic delivery efficiency, the cell type may be incubated in the presence of a cell-penetrating peptide of the invention for a specified period of time (e.g., 30 minutes, 1 hour, 2 hours, etc.) after which the amount of the CPP internalized by the cell is quantified using methods known in the art, e.g., fluorescence microscopy. Separately, the same concentration of the control CPP is incubated in the presence of the cell type over the same period of time, and the amount of the control CPP internalized by the cell is quantified.
To determine cellular uptake efficiency of the CPPs disclosed herein, HeLa cells were cultured in 12-well plates (1.5×10^5 cells per well) overnight. The cells were incubated for 2 h with […] naphthofluorescein (NF)-labelled peptide in cellular media. At the end of incubation, the cells were washed with DPBS twice, detached from the plate with 0.25% trypsin, diluted into clear DMEM, pelleted at 250 g for 5 min, washed twice with DPBS, resuspended in DPBS, and analyzed on a BD FACS LSR II flow cytometer. For NF-labelled peptides, a 633-nm laser was used for excitation and the fluorescence emission was analyzed in the APC channel. Absolute cellular uptake efficiency was determined by comparing the concentration (via fluorescence intensity) of the CPP in the cytosol to the concentration in the extracellular medium.

Ac-(Dap-fFRrRrD) (Ac-[Dap][dF]FR[dR]R[dR]D; not fully specified (bridges); printed as Ac-(Dap-fFRrRrD); also: cyclic, closure sites not given here) [SAR 67]
Relative Cytosolic Delivery Efficiency: 126 ± 33%

Ac-(Lys-fFRrRrD) (K[dF]FR[dR]R[dR]D; not fully specified (N-terminus, bridges); printed as Ac-(Lys-fFRrRrD); also: cyclic, closure sites not given here) [SAR 66]
Relative Cytosolic Delivery Efficiency: 129 ± 9%

SAR 68 (CWWRRRRC; disulfide 1-8)
Relative Cytosolic Delivery Efficiency: 51%

SAR 69 (CWWVRRRRC; disulfide 1-9)
Relative Cytosolic Delivery Efficiency: 67%

SAR 70 (CFWRRRRC; disulfide 1-8)
Relative Cytosolic Delivery Efficiency: 49%

SAR 71 (CWWWRRRC; disulfide 1-8)
Relative Cytosolic Delivery Efficiency: 135%

cyclo(FFFRAQ) (cyclic) [SAR 26]
Relative Cytosolic Delivery Efficiency: 52 ± 2%

cyclo(FFFRRQ) (cyclic) [SAR 27]
Relative Cytosolic Delivery Efficiency: 125 ± 25%

cyclo(FFFRRRQ) (cyclic) [SAR 34]
Relative Cytosolic Delivery Efficiency: 231 ± 43%

cyclo(FFFRRRRQ) (cyclic) [SAR 45]
Relative Cytosolic Delivery Efficiency: 122 ± 20%

cyclo(FFFRRRRRQ (cyclic) [SAR 53]
Relative Cytosolic Delivery Efficiency: 145 ± 27%

cyclo(FFFRRRRRR (FFFRRRRRRQ; cyclic) [SAR 54]
Relative Cytosolic Delivery Efficiency: 141 ± 10%

cyclo(FFRFRRQ) (cyclic) [SAR 38]
Relative Cytosolic Delivery Efficiency: 106 ± 22%

cyclo(FFRRFRQ) (cyclic) [SAR 39]
Relative Cytosolic Delivery Efficiency: 86 ± 12%

cyclo(FFRRFRRQ) (cyclic) [SAR 50]
Relative Cytosolic Delivery Efficiency: 46 ± 2%

cyclo(FFRRRFQ) (cyclic) [SAR 35]
Relative Cytosolic Delivery Efficiency: 158 ± 21%

cyclo(FFRRRQ) (cyclic) [SAR 19]
Relative Cytosolic Delivery Efficiency: 89 ± 34%

cyclo(FFRRRRFQ) (cyclic) [SAR 51]
Relative Cytosolic Delivery Efficiency: 162 ± 16%

cyclo(FFRRRRQ) (cyclic) [SAR 28]
Relative Cytosolic Delivery Efficiency: 89 ± 27%

cyclo(FFRrRQ) (cyclo(FFR[dR]RQ); SMILES N=C(N)NCCC[C@@H]1NC(=O)[C@H](Cc2ccccc2)NC(=O)[C@H](Cc2ccccc2)NC(=O)[C@H](CCC(N)=O)NC(=O)[C@H](CCCNC(=N)N)NC(=O)[C@@H](CCCNC(=N)N)NC1=O) [SAR 21]
Relative Cytosolic Delivery Efficiency: 59 ± 7%

cyclo(FFrRrQ) (cyclo(FF[dR]R[dR]Q); SMILES N=C(N)NCCC[C@@H]1NC(=O)[C@@H](CCCNC(=N)N)NC(=O)[C@H](Cc2ccccc2)NC(=O)[C@H](Cc2ccccc2)NC(=O)[C@H](CCC(N)=O)NC(=O)[C@@H](CCCNC(=N)N)NC1=O) [SAR 20]
Relative Cytosolic Delivery Efficiency: 118 ± 5%

cyclo(FRFRFRQ) (cyclic) [SAR 42]
Relative Cytosolic Delivery Efficiency: 105 ± 14%

cyclo(FRFRRQ) (cyclic) [SAR 22]
Relative Cytosolic Delivery Efficiency: 15 ± 3%

cyclo(FRFRRRQ) (cyclic) [SAR 33]
Relative Cytosolic Delivery Efficiency: 132 ± 57%

cyclo(FRRFFRQ) (cyclic) [SAR 40]
Relative Cytosolic Delivery Efficiency: 109 ± 11%

cyclo(FRRFFRRQ) (cyclic) [SAR 52]
Relative Cytosolic Delivery Efficiency: 127 ± 22%

cyclo(FRRFRFQ) (cyclic) [SAR 41]
Relative Cytosolic Delivery Efficiency: 101 ± 16%

cyclo(FRRFRQ) (cyclic) [SAR 23]
Relative Cytosolic Delivery Efficiency: 38 ± 10%

cyclo(FRRFRRQ) (cyclic) [SAR 29]
Relative Cytosolic Delivery Efficiency: 31 ± 3%

cyclo(FRRRFQ) (cyclic) [SAR 24]
Relative Cytosolic Delivery Efficiency: 25 ± 4%

cyclo(FRRRFRQ) (cyclic) [SAR 30]
Relative Cytosolic Delivery Efficiency: 20 ± 3%

cyclo(FfFRrRQ) (cyclo(F[dF]FR[dR]RQ); SMILES N=C(N)NCCC[C@@H]1NC(=O)[C@H](Cc2ccccc2)NC(=O)[C@@H](Cc2ccccc2)NC(=O)[C@H](Cc2ccccc2)NC(=O)[C@H](CCC(N)=O)NC(=O)[C@H](CCCNC(=N)N)NC(=O)[C@@H](CCCNC(=N)N)NC1=O) [SAR 57]
Relative Cytosolic Delivery Efficiency: 218 ± 9%

cyclo(FfFrRrQ) (cyclo(F[dF]F[dR]R[dR]Q); SMILES N=C(N)NCCC[C@@H]1NC(=O)[C@@H](CCCNC(=N)N)NC(=O)[C@H](Cc2ccccc2)NC(=O)[C@@H](Cc2ccccc2)NC(=O)[C@H](Cc2ccccc2)NC(=O)[C@H](CCC(N)=O)NC(=O)[C@@H](CCCNC(=N)N)NC1=O) [SAR 60]
Relative Cytosolic Delivery Efficiency: 205 ± 30%

cyclo(FΦRRRQ) (cyclo(F[2Nal]RRRRQ); SMILES N=C(N)NCCC[C@@H]1NC(=O)[C@H](CCCNC(=N)N)NC(=O)[C@H](CCCNC(=N)N)NC(=O)[C@H](Cc2ccc3ccccc3c2)NC(=O)[C@H](Cc2ccccc2)NC(=O)[C@H](CCC(N)=O)NC(=O)[C@H](CCCNC(=N)N)NC1=O) [SAR 1, control CPP, reference compound]
Relative Cytosolic Delivery Efficiency: 100 ± 6%

cyclo(FΦRrRrQ) (cyclo(F[2Nal]R[dR]R[dR]Q); SMILES N=C(N)NCCC[C@@H]1NC(=O)[C@H](Cc2ccc3ccccc3c2)NC(=O)[C@H](Cc2ccccc2)NC(=O)[C@H](CCC(N)=O)NC(=O)[C@@H](CCCNC(=N)N)NC(=O)[C@H](CCCNC(=N)N)NC(=O)[C@@H](CCCNC(=N)N)NC1=O) [SAR 55]
Relative Cytosolic Delivery Efficiency: 212 ± 42%

cyclo(FΦrRrQ) (cyclo(F[2Nal][dR]R[dR]Q); SMILES N=C(N)NCCC[C@@H]1NC(=O)[C@@H](CCCNC(=N)N)NC(=O)[C@H](Cc2ccc3ccccc3c2)NC(=O)[C@H](Cc2ccccc2)NC(=O)[C@H](CCC(N)=O)NC(=O)[C@@H](CCCNC(=N)N)NC1=O) [SAR 64]
Relative Cytosolic Delivery Efficiency: 63 ± 11%

cyclo(GΦRRRQ) [SAR 25] (cyclo(G[2Nal]RRRQ); SMILES N=C(N)NCCC[C@@H]1NC(=O)[C@H](Cc2ccc3ccccc3c2)NC(=O)CNC(=O)[C@H](CCC(N)=O)NC(=O)[C@H](CCCNC(=N)N)NC(=O)[C@H](CCCNC(=N)N)NC1=O)
Relative Cytosolic Delivery Efficiency: 49 ± 5%

cyclo(GΦRRRQ) [SAR 44] (cyclo(G[2Nal]RRRRQ); SMILES N=C(N)NCCC[C@@H]1NC(=O)[C@H](Cc2ccc3ccccc3c2)NC(=O)CNC(=O)[C@H](CCC(N)=O)NC(=O)[C@H](CCCNC(=N)N)NC(=O)[C@H](CCCNC(=N)N)NC(=O)[C@H](CCCNC(=N)N)NC1=O)
Relative Cytosolic Delivery Efficiency: 55 ± 5%

cyclo(Pip-Nal-Arg-Arg-arg-arg-glu) (cyclo([Pip][2Nal]RR[dR][dR][dE]); SMILES N=C(N)NCCC[C@@H]1NC(=O)[C@H](Cc2ccc3ccccc3c2)NC(=O)[C@@H]2CCCCN2C(=O)[C@@H](CCC(=O)O)NC(=O)[C@@H](CCCNC(=N)N)NC(=O)[C@@H](CCCNC(=N)N)NC(=O)[C@H](CCCNC(=N)N)NC1=O) [Pin1 16]
Relative Cytosolic Delivery Efficiency: 18 ± 2%

cyclo(Pip-Nal-Arg-Glu-arg-arg-glu) (cyclo([Pip][2Nal]RE[dR][dR][dE]); SMILES N=C(N)NCCC[C@@H]1NC(=O)[C@H](Cc2ccc3ccccc3c2)NC(=O)[C@@H]2CCCCN2C(=O)[C@@H](CCC(=O)O)NC(=O)[C@@H](CCCNC(=N)N)NC(=O)[C@@H](CCCNC(=N)N)NC(=O)[C@H](CCC(=O)O)NC1=O) [Pin1 15]
Relative Cytosolic Delivery Efficiency: 7.7 ± 0.5%

cyclo(Pip-Nal-Nal-Arg-arg-arg-Glu) [Pin1 18]
Relative Cytosolic Delivery Efficiency: 340 ± 130%

cyclo(Pip-Nal-Nal-Arg-arg-arg-glu) [Pin1 17]
Relative Cytosolic Delivery Efficiency: 506 ± 120%

cyclo(Pip-Nal-Phe-Arg-arg-arg-Glu) [Pin1 20]
Relative Cytosolic Delivery Efficiency: 15 ± 6%

cyclo(Pip-Nal-Phe-Arg-arg-arg-glu) (cyclo([Pip][2Nal]FR[dR][dR][dE]); SMILES N=C(N)NCCC[C@@H]1NC(=O)[C@H](Cc2ccccc2)NC(=O)[C@H](Cc2ccc3ccccc3c2)NC(=O)[C@@H]2CCCCN2C(=O)[C@@H](CCC(=O)O)NC(=O)[C@@H](CCCNC(=N)N)NC(=O)[C@@H](CCCNC(=N)N)NC1=O) [Pin1 19]
Relative Cytosolic Delivery Efficiency: 19 ± 16%

cyclo(Pip-Nal-nal-Arg-arg-arg-Glu) [Pin1 23]
Relative Cytosolic Delivery Efficiency: 215 ± 86%

cyclo(Pip-Nal-nal-Arg-arg-arg-glu) [Pin1 24]
Relative Cytosolic Delivery Efficiency: 141 ± 64%

cyclo(Pip-Nal-phe-Arg-arg-arg-Glu) (cyclo([Pip][2Nal][dF]R[dR][dR]E); SMILES N=C(N)NCCC[C@@H]1NC(=O)[C@@H](Cc2ccccc2)NC(=O)[C@H](Cc2ccc3ccccc3c2)NC(=O)[C@@H]2CCCCN2C(=O)[C@H](CCC(=O)O)NC(=O)[C@@H](CCCNC(=N)N)NC(=O)[C@@H](CCCNC(=N)N)NC1=O) [Pin1 22]
Relative Cytosolic Delivery Efficiency: 15 ± 6%
